# Active and inactive are the calls of the source. The calls are words filed in the database; no cut-off is given here.
# Legend:
# SH-SY5Y [1] = assay: Anti-ferroptosis activity against RSL3-induced ferroptosis in human SH-SY5Y cells assessed as reversal of ferroptosis by measuring cell viability measured after 48 hrs by MTT assay; type: functional, cell-based
# [2] = Metabolic stability in rat liver homogenate assessed as half life; type: ADME, tissue-based
# [3] = Plasma stability in human plasma assessed as half life; type: ADME, cell-free
# [4] = Plasma stability in rat plasma assessed as half life; type: ADME, cell-free
# [5] = Plasma stability in human plasma assessed as recovery measured after 12 hrs; type: ADME, cell-free; conditions: read-out: Drug recovery
# [6] = Metabolic stability in rat liver homogenate assessed as recovery measured after 12 hrs; type: ADME, tissue-based; conditions: read-out: Drug recovery
# SH-SY5Y [7] = assay: Prevention of RSL3-induced ferroptosis in human SH-SY5Y cells assessed as cell viability at 5 uM measured after 48 hrs by MTT assay; type: functional, cell-based
# [8] = Plasma stability in rat plasma assessed as recovery measured after 12 hrs; type: ADME, cell-free; conditions: read-out: Drug recovery
# OS-RC-2 = assay: Anti-ferroptosis activity against RSL3-induced ferroptosis in human OS-RC-2 cells assessed as reversal of ferroptosis by measuring cell viability measured after 48 hrs by MTT assay; type: functional, cell-based
# SH-SY5Y [9] = assay: Prevention of TSZ-induced necroptosis in human SH-SY5Y cells assessed as cell viability at 5 uM measured after 48 hrs by MTT assay; type: functional, cell-based
# HT-1080 [10] = assay: Prevention of RSL3-induced ferroptosis morphological changes in human HT-1080 cells assessed as shrinkage, swelling, and membrane rupture measured up to 48 hrs; type: functional, cell-based
# HT-1080 [11] = assay: Anti-ferroptosis activity against RSL3-induced ferroptosis in human HT-1080 cells assessed as reversal of ferroptosis by measuring cell viability measured after 48 hrs by MTT assay; type: functional, cell-based
# L02 = assay: Cytotoxicity against human LO2 cells at 30 uM measured after 48 hrs incubation by MTT assay; type: toxicity, cell-based; conditions: l02, 48 h
# SH-SY5Y [12] = assay: Anti-ferroptotic activity against RSL3 induced human SH-SY5Y cells inhibition of RSL3 induced in MDA level at 1.5 uM measured after 16 hrs by lipid peroxidation MDA assay; type: functional, cell-based
# [13] = Cytotoxicity against human HUVEC at 30 uM measured after 48 hrs incubation by MTT assay; type: toxicity, cell-based; conditions: huve
# [14] = Metal chelating activity assessed as compound-Fe3+ complex formation by UV-Vis absorption spectra analysis
# [15] = Free radical trapping antioxidant activity in di-tert-undecyl hyponitrite (DTUN) trigged STY-BODIPY-embedded egg phosphatidylcholine liposomes assessed as inhibition of phospholipid peroxidation by measuring inhibition rate constant of STY-BODIPY at 1 uM by fluorescence-enabled inhibited autoxidation method (FENIX); type: functional
# SH-SY5Y [16] = assay: Anti-ferroptotic activity against RSL3 induced human SH-SY5Y cells inhibition of RSL3 induced in LPO accumulation at 1.5 uM measured after 16 hrs by BODIPY581/591 based flow cytometric analysis; type: functional, cell-based
# SH-SY5Y [17] = assay: Anti-ferroptotic activity against RSL3 induced human SH-SY5Y cells inhibition of RSL3 induced in LPO accumulation at 1.5 uM measured after 16 hrs by DCFH-DA based confocal laser scanning microscopic (CLSM) imaging analysis; type: functional, cell-based
# [18] = Antioxidant activity assessed as DPPH radical scavenging activity measured after 30 mins in dark by (DPPH) bleaching assay; type: functional
# [19] = Metal chelating activity assessed as compound-Fe2+ complex formation by UV-Vis absorption spectra analysis
# SH-SY5Y [20] = assay: Prevention of STS-induced apoptosis in human SH-SY5Y cells assessed as cell viability at 5 uM measured after 48 hrs by MTT assay; type: functional, cell-based
# [21] = Toxicity in Balb/c mouse assessed as histopathological changes in kidney at 20 mg/kg, iv (tail vein) measured for 24 hrs by H and E staining based analysis; type: organism-based; conditions: in vivo
# Mus musculus [22] = assay: Protection against middle cerebral artery occlusion (MCAO)-induced Balb/c mouse assessed as reduction in infarct volume in brain at 20 mg/kg, iv (tail vein) measured for 24 hrs by TTC staining (reference value: 50.08%); type: functional; set-up: scale not given: the % may be the effect or the level left
# [23] = Toxicity in Balb/c mouse assessed as histopathological changes in liver at 20 mg/kg, iv (tail vein) measured for 24 hrs by H and E staining based analysis; type: organism-based; conditions: in vivo
# Mus musculus [24] = assay: Protection against middle cerebral artery occlusion (MCAO)-induced Balb/c mouse assessed as reduction in MDA level in lesioned hemisphere at 20 mg/kg, iv (tail vein) measured for 24 hrs by lipid peroxidation MDA assay; type: functional, organism-based
# [25] = Toxicity in Balb/c mouse assessed as histopathological changes in lung at 20 mg/kg, iv (tail vein) measured for 24 hrs by H and E staining based analysis; type: organism-based; conditions: in vivo
# Mus musculus [26] = assay: Protection against middle cerebral artery occlusion (MCAO)-induced Balb/c mouse assessed as reduction in PTGS2 mRNA level in lesioned hemisphere at 20 mg/kg, iv (tail vein) measured for 24 hrs by qRT-PCR analysis; type: functional, organism-based
# [27] = Toxicity in Balb/c mouse assessed as histopathological changes in heart at 20 mg/kg, iv (tail vein) measured for 24 hrs by H and E staining based analysis; type: organism-based; conditions: in vivo
# [28] = Toxicity in Balb/c mouse assessed as histopathological changes in spleen at 20 mg/kg, iv (tail vein) measured for 24 hrs by H and E staining based analysis; type: organism-based; conditions: in vivo
smiles,measurement,setting,value
Clc1cc(Cl)cc(CNc2c(-c3ccoc3)nc3ccccn23)c1,IC50,SH-SY5Y [1],1560 nM
Cc1ccc2nc(-c3cccc(Cl)c3)c(NC(C)(C)C)n2c1,IC50,SH-SY5Y [1],> 10000 nM
c1coc(CNc2c(-c3cscn3)nc3ccccn23)c1,IC50,SH-SY5Y [1],2640 nM
CCOC(=O)CNc1c(-c2ccccc2)nc2ccccn12,IC50,SH-SY5Y [1],2930 nM
COc1ccc(Nc2c(C3CCCCC3)nc3ccc(F)cn23)cc1Cl,IC50,SH-SY5Y [1],80 nM
COc1ccc(Nc2c(-c3cc(Cl)cc(Cl)c3)nc3ccc(N4CCN(C)CC4)cn23)cc1Cl,IC50,SH-SY5Y [1],84 nM
Clc1cc(Cl)cc(CNc2c(-c3cscn3)nc3ccccn23)c1,IC50,SH-SY5Y [1],2030 nM
CCOC(=O)CNc1c(-c2ccc(OC)cc2)nc2ccccn12,IC50,SH-SY5Y [1],3940 nM
c1ccn2c(NC34C[C@H]5C[C@@H](C3)C[C@@H](C4)C5)c(C3CCCCC3)nc2c1,IC50,SH-SY5Y [1],> 10000 nM
COc1ccc(Nc2c(-c3csc4ccccc34)nc3ccccn23)cc1Cl,IC50,SH-SY5Y [1],195 nM
COc1ccc(Nc2c(-c3cc(Cl)cc(Cl)c3)nc3cc(COCc4cccc(Cl)c4)ccn23)cc1Cl,IC50,SH-SY5Y [1],802 nM
COc1ccc(Nc2c(-c3ccsc3)nc3ccccn23)cc1Cl,IC50,SH-SY5Y [1],476 nM
Nc1ccccc1-c1cn2ccccc2n1,IC50,SH-SY5Y [1],> 10000 nM
COc1ccc(-c2nc3ccccn3c2NC23C[C@H]4C[C@@H](C2)C[C@@H](C3)C4)cc1,IC50,SH-SY5Y [1],1870 nM
COc1ccc(-c2nc3ccccn3c2NC2CCCCC2)cc1,IC50,SH-SY5Y [1],> 10000 nM
CCOC(=O)c1ccc(NC2CCCCC2)c(N)c1,half-life,[2],0.67 h
same,half-life,[3],> 12 h
same,half-life,[4],2.1 h
same,remaining at 12 h,[5],94.1%
same,remaining at 12 h,[6],7.1%
same,IC50,SH-SY5Y [1],20 nM
same,Activity,SH-SY5Y [7],Active
same,remaining at 12 h,[8],0%
Clc1cc(Cl)cc(CNc2c(-c3cc(Cl)cc(Cl)c3)nc3ccccn23)c1,IC50,SH-SY5Y [1],1930 nM
Cc1ccc2nc(-c3ccc(N4CCOCC4)cc3)c(NC3CCCCC3)n2c1,IC50,SH-SY5Y [1],> 10000 nM
Clc1cccc(-c2nc3ccccn3c2NC23C[C@H]4C[C@@H](C2)C[C@@H](C3)C4)c1,IC50,SH-SY5Y [1],> 30000 nM
Clc1cc(Cl)cc(-c2nc3ccc4ccccc4n3c2NC2CCCCC2)c1,IC50,SH-SY5Y [1],920 nM
Oc1ccccc1-c1nc2ccccn2c1Cc1ccccc1,IC50,SH-SY5Y [1],5210 nM
Oc1ccc(-c2cn3ccccc3n2)c(O)c1,IC50,SH-SY5Y [1],2380 nM
COc1ccc(Nc2c(-c3c(Cl)cc(Cl)cc3Cl)nc3ccc4ccccc4n23)cc1Cl,half-life,[2],< 0.08 h
same,half-life,[3],< 0.08 h
same,half-life,[4],< 0.08 h
same,remaining at 12 h,[5],47.9%
same,remaining at 12 h,[6],32.2%
same,IC50,SH-SY5Y [1],22 nM
same,remaining at 12 h,[8],42.3%
COc1ccc(Nc2c(-c3ccccc3Cl)nc3ccc4ccccc4n23)cc1Cl,IC50,SH-SY5Y [1],65 nM
c1ccn2c(NC34C[C@H]5C[C@@H](C3)C[C@@H](C4)C5)c(-c3cscn3)nc2c1,IC50,SH-SY5Y [1],> 30000 nM
Clc1cccc(CNc2c(-c3cccc(Cl)c3)nc3ccc4ccccc4n23)c1,IC50,SH-SY5Y [1],287 nM
Clc1cccc(CNc2c(-c3cccc(Cl)c3)nc3ccccn23)c1,IC50,SH-SY5Y [1],181 nM
c1ccc2c(c1)ccc1nc(-c3ccsc3)c(NC3CCCCC3)n12,IC50,SH-SY5Y [1],426 nM
Oc1ccccc1-c1cn2ccccc2n1,IC50,SH-SY5Y [1],9880 nM
Clc1cc(Cl)cc(CNc2c(-c3cc(Cl)cc(Cl)c3)nc3ccc4ccccc4n23)c1,IC50,SH-SY5Y [1],766 nM
FC(F)(F)c1ccccc1-c1nc2ccc3ccccc3n2c1NC1CCCCC1,IC50,SH-SY5Y [1],104 nM
Cc1ccccc1-c1cn2ccccc2n1,IC50,SH-SY5Y [1],> 100000 nM
COc1ccc(Nc2c(-c3ccoc3)nc3ccccn23)cc1Cl,Activity,OS-RC-2,Active
same,Activity,SH-SY5Y [9],inactive
same,half-life,[2],> 12 h
same,half-life,[3],> 12 h
same,half-life,[4],> 12 h
same,Activity,HT-1080 [10],Active
same,Activity,HT-1080 [11],Active
same,remaining at 12 h,[5],100%
same,Activity,L02,Non-toxic
same,Activity,SH-SY5Y [12],Active
same,remaining at 12 h,[6],95.8%
same,IC50,SH-SY5Y [1],99 nM
same,Activity,[13],Non-toxic
same,Activity,[14],inactive
same,Ki,[15],1.6 10^4/M/s
same,Activity,SH-SY5Y [16],Active
same,Activity,SH-SY5Y [17],Active
same,Activity,[18],Dose-dependent-effect
same,Activity,[19],inactive
same,Activity,SH-SY5Y [7],Active
same,Activity,SH-SY5Y [20],inactive
same,remaining at 12 h,[8],100%
Clc1cc(Cl)cc(-c2nc3ccccn3c2NC2CCCCC2)c1,IC50,SH-SY5Y [1],625 nM
Cc1cn2cccc(-c3ccccc3O)c2n1,IC50,SH-SY5Y [1],> 30000 nM
COc1ccc(-c2nc3ccccn3c2NC(C)(C)C)cc1,IC50,SH-SY5Y [1],> 30000 nM
COc1ccc(Nc2c(C3CCCCC3)nc3ccccn23)cc1Cl,Activity,OS-RC-2,Active
same,Activity,SH-SY5Y [9],inactive
same,half-life,[2],> 12 h
same,half-life,[3],> 12 h
same,half-life,[4],> 12 h
same,Activity,HT-1080 [10],Active
same,Activity,HT-1080 [11],Active
same,remaining at 12 h,[5],100%
same,Activity,L02,Non-toxic
same,Activity,[21],Non-toxic
same,Activity,SH-SY5Y [12],Active
same,remaining at 12 h,[6],91.1%
same,IC50,SH-SY5Y [1],97 nM
same,Activity,[13],Non-toxic
same,Activity,[14],inactive
same,Ki,[15],2 10^4/M/s
same,Activity,Mus musculus [22],25.28%
same,Activity,SH-SY5Y [16],Active
same,Activity,SH-SY5Y [17],Active
same,Activity,[23],Non-toxic
same,Activity,[18],Dose-dependent-effect
same,Activity,[19],inactive
same,Activity,Mus musculus [24],Active
same,Activity,[25],Non-toxic
same,Activity,SH-SY5Y [7],Active
same,Activity,Mus musculus [26],Active
same,Activity,[27],Non-toxic
same,Activity,SH-SY5Y [20],inactive
same,remaining at 12 h,[8],100%
same,Activity,[28],Non-toxic
CC(=O)N(O)CCCCCNC(=O)CCC(=O)N(O)CCCCCNC(=O)CCC(=O)N(O)CCCCCN,Activity,[14],Active
same,Activity,[19],Active
FC(F)(F)c1ccccc1-c1nc2ccccn2c1NCc1ccco1,IC50,SH-SY5Y [1],412 nM
Cc1cn2cccc(-c3ccccc3N)c2n1,IC50,SH-SY5Y [1],> 100000 nM
Oc1ccccc1-c1cccn2c(Cc3ccccc3)c(-c3ccccc3)nc12,IC50,SH-SY5Y [1],> 30000 nM
CC(C)(C)Nc1c(-c2ccoc2)nc2ccccn12,IC50,SH-SY5Y [1],> 10000 nM

# Source: ChEMBL document CHEMBL6177954, “Identification of imidazo[1,2-a]pyridine-3-amine as a novel drug-like scaffold for efficious ferroptosis inhibition in vivo” (Eur J Med Chem, 2025)
